Data as given in paper PMC8587714, “Preliminary Assessment of the Anti-inflammatory Activity of New Structural Honokiol Analogs with a 4′-O-(2-Fluoroethyl) Moiety and the Potential of Their ^18F-Labeled Derivatives for Neuroinflammation Imaging” (Molecules, 2021).
Read-outs that look alike come from different tables or passages of the source.

Assays:
[1] = target: T1, human recombinant COX-1 (Homo sapiens, UniProt P23219); assay: COX (human) Inhibitor Screening Assay kit (EIA), COX-1
[2] = target: T2, human recombinant COX-2 (Homo sapiens, UniProt P35354); assay: COX (human) Inhibitor Screening Assay kit (EIA), COX-2
T2 sequence (P35354 18-604): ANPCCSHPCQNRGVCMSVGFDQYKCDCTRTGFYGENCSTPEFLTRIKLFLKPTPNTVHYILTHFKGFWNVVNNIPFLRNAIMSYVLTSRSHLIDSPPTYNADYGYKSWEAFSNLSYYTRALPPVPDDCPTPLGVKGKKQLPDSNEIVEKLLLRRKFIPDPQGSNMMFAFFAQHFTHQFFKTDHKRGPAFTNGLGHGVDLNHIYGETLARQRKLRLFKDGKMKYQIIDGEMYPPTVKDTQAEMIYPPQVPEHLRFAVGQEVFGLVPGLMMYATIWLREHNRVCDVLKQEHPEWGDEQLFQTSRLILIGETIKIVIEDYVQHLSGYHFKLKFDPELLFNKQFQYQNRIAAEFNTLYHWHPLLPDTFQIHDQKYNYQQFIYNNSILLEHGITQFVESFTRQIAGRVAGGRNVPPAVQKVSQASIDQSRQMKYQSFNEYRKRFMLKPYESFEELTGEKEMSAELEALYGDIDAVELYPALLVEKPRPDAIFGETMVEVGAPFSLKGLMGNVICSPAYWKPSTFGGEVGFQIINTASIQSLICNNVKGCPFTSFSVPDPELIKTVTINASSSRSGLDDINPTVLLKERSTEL

[3] = test system: IL-6 and TNF-α; assay: Cytokine assay (ELISA) in LPS-induced neuroinflammation in mice; type: in vivo, C57BL/6 mice; conditions: 10 mg/kg for 3 days, 72 h after LPS
[4] = test system: lipid peroxidation products (TBARS); assay: TBARS assay in brain of LPS-injected mice; type: in vivo, C57BL/6 mice; conditions: 10 mg/kg for 3 days, 72 h after LPS
Excerpt: All experiments adhered to regulations of DIRECTIVE 2010/63/EU on the protection of laboratory animals. The procedures with animals were reviewed and approved by the Ethics Committee of Smorodintsev Research Institute of Influenza. […]. The animals were housed in a climate-controlled room with a 12/12-h light cycle. The subjects had ad libitum access to food and water during housing. Neuroinflammation was modeled in animals by intraperitoneal (i.p.) single injection of LPS from Escherichia coli saline O111:B4 (Sigma-Aldrich) at a dose of 2 mg/kg.
In total, 7 groups of 5 individuals in each were studied, including a group of intact animals. […]. The blood collected after decapitation was left in tubes with a serum separator for 30 min, then centrifuged at 611 g (3000 rpm) and 4 °C for 10 min. Blood and brain samples were frozen and stored at −20 °C.
The brain was weighed and 2 mL of ice-cold endotoxin-free PBS containing 0.1% non-ionic detergent Triton X-100 was added to the tissue samples left under ice for 10 min until homogenized with a tissue disruptor. […]
The supernatant diluted with buffer 1:10 was used for analysis. […] Each sample (150 μL) was loaded in duplicate into a 96-well plate, and the absorbance was measured at 535 nm on an EPOCH2TC.

[5] = target: T2, human recombinant COX-2; design: purchased Cayman Chemical Company 701230; conditions: cited from earlier work
[6] = target: T1, human recombinant COX-1; design: purchased Cayman Chemical Company 701230; conditions: human COX-1/COX-2 assay kit; cited from earlier work
[7] = design: method as in doi:10.1002/slct.201904788; conditions: all examined organs and brain regions; cited from earlier work
[8] = Plasma protein binding by ultrafiltration, human plasma; type: in vitro ADME
Protocol: (§1) The ultrafiltration method was used to estimate the protein-free fraction of [^18F]F-IV and [^11C]MPbP in human and rat plasma. Equal volumes (500 μL) of plasma or PBS (control) were mixed with the formulated solution of radioligand (5 MBq,50μL) and incubated at 37 °C for 15 min. After incubation, aliquots of mixture (200 µL) were transferred to the tubes for ultrafiltration (Amicon 3K; Merck) and centrifuged at 7000 g for 15 min. Equal aliquots (20 μL) of ultrafiltrate (Cfree) and plasma (Ctotal) were measured with γ-counter. The obtained data were corrected for the radioligand binding to the filter membrane. Filtrations were performed in duplicate. The unbound (free) fraction of the radioligand was calculated as fu(%) = Cfree/Ctotal × 100%.

[9] = Plasma protein binding by ultrafiltration, rat plasma; type: in vitro ADME
Protocol: as §1

[10] = Plasma-stability study (radio-HPLC); type: in vitro ADME; conditions: 37 °C, up to 60 min
Protocol: The stability of [^18F]F-IV was investigated in human plasma at 37 °C in the range from 0 to 60 min according to a modified protocol. Phosphate-buffered saline (PBS, 0.15 M, pH 7.4) was used as a control. [^18F]F-IV formulated solution (10 µL, ~1 MBq) was added to tubes with PBS (300 µL) and human plasma (300 µL). The mixture was vortexed and incubated at 37 °C. An aliquot of 100 µL from the sample was taken at different time points (0, 10, 20, 40, and 60 min) and mixed with 100 µL ice-cooled acetonitrile and centrifuged (3 min, 4500× g). The supernatants were analyzed by radio-HPLC using XBridge C18 analytical column.

[11] = Ex vivo biodistribution in intact, LPS-treated and celecoxib-blocked rats; design: species or system Wistar rats
Protocol: Ex vivo biodistribution was intended as a preliminary assessment of the BBB permeability and overall distribution of [^18F]F-IV in LPS-treated and intact Wistar rats. [^18F]F-IV uptake by tissue was expressed as %ID/g (dose administered per gram of tissue). […] The radioligand seems to readily penetrate the BBB, as evidenced by the high initial rate of brain uptake with a peak value of 2.21 ± 0.64 and 2.09 ± 0.65 (%ID/g) in the pons and medulla, respectively, at 10 min post-injection, (Figure 6A). […] The excretion pathway was through the kidneys, and 60 min after injection there was no obvious difference in [^18F]F-IV uptake values between tissues. The lack of significant specific accumulation of radioactivity in the brain, heart, lungs, and kidneys most likely reflects the low baseline level of COX-2 expression in these organs in healthy animals. It should be noted that relatively high initial levels of radioactivity in the blood pool persisted even 120 min after injection of [^18F]F-IV (0.99 ± 0.17 vs. 1.35 ± 0.06%ID/g). This was the main difference in the distribution of [^18F]F-IV and the previously reported [^11C]MPbP in organs and tissues of intact rats.
Ex vivo radioligand biodistribution was performed by direct radiometry of organs and tissue samples of Wistar rats. Each rat was injected with (12 ± 3) MBq (volume ≤ 0.2 mL) of [^18F]F-IV through the tail vein under anesthetic conditions. Control rats were sacrificed at 10 (n = 3), 30 (n = 3), 60 (n = 3), and 120 (n = 3) min after injection. Twenty-four hours prior to ex vivo biodistribution studies, 6 rats received an intraperitoneal (i.p.) injection of LPS (2 mg/kg) from Escherichia coli (O111: B4) or saline (1 mL/kg).
Blood samples and organs of interest, namely, the brain (cerebral cortex, cerebellum, medulla, and pons), thymus, heart, lung, spleen, kidney, liver, bladder, and muscle, were removed and weighed. The radioactivity in each tissue sample was measured by a γ-counter to calculate the percentage of injected dose per gram of tissue (%ID/g). Data were provided as mean ± SEM values.

[12] = logD7.4 determination, shake-flask method; type: physicochemical; conditions: 1-octanol/phosphate buffer pH 7.4, n = 6; read-out: lipophilicity (logD7.4)
Protocol: The partition coefficient of [^18F]F-IV (log D7.4) was determined by the shake-flask method for measuring the distribution of radioactivity between 1-octanol and phosphate buffer pH 7.4. Into a tube containing 10 µL of [^18F]F-IV (~1 MBq), 1.5 mL of pre-saturated 1-octanol and 1.5 mL of phosphate buffer were added and vortexed for 15 min. Then, the tube was centrifuged at 3000 g for 5 min to ensure complete separation of the phases. Then, aliquots of 500 μL were taken from each phase into separate tubes and the radioactivity was measured in a γ-counter. The measurements were performed in triplicate. The log D7.4 value was calculated as follows: log (counts per min in 1-octanol/ counts per min in PBS) for five independent experiments.

[13] = test system: ovine COX-2; design: method as in PMID 25074039; conditions: ovine COX-1/COX-2 assay kit; cited from earlier work
[14] = test system: ovine COX-1; design: method as in PMID 25074039; conditions: ovine COX-1/COX-2 assay kit; cited from earlier work
[15] = human plasma, read-out: PPB level, humans (converted)
[16] = unbound (free) fraction, 37 °C, n = 6, read-out: fu in Human Plasma
[17] = rat plasma, read-out: PPB level, rats (converted)
[18] = unbound (free) fraction, 37 °C, n = 3, read-out: fu in Rat Plasma
[19] = %ID organ/%ID blood, 60 min post-injection
[20] = healthy (intact) rats, 10 min post-injection

T1 sequence (P23219 24-599): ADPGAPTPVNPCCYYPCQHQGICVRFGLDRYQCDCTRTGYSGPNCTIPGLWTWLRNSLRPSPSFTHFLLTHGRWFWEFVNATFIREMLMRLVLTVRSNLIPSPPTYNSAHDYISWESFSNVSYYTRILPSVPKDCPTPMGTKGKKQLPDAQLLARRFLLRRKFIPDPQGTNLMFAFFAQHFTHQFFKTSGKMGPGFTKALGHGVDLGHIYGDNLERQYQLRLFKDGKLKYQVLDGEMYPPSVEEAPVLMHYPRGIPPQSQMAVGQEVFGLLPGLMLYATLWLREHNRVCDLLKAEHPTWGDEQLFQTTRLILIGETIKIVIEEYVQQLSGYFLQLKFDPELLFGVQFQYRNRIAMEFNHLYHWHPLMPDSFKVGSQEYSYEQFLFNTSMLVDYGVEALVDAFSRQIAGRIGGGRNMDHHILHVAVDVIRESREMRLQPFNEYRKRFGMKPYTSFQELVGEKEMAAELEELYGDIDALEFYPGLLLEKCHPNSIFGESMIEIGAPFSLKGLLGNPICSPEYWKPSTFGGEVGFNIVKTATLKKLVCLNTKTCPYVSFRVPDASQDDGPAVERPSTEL

## CCCc1ccc(O)c(-c2ccc(OCCF)cc2)c1 [F-IV, 4′-(2-fluoroethoxy)-2-hydroxy-5-propyl-1,1′-biphenyl]
[1]
  IC50: 4.61 µM
[2]
  IC50: 0.09 µM
[2]; SI = COX-1 IC50/COX-2 IC50, human assay kit, this study
  SI (Selectivity Index): 48
[3]
  serum levels of IL-6 and TNF-α: comparable or even superior to that of celecoxib

## Cc1ccc(-c2cc(C(F)(F)F)nn2-c2ccc(S(N)(=O)=O)cc2)cc1 [Celecoxib, celecoxib, reference compound]
[4]
  reduction of TBARS levels in brain: little or no effect
[3]
  serum levels of IL-6 and TNF-α: reduced them to levels seen in intact animals

## CCCc1ccc(O)c(-c2ccc(OC)cc2)c1 [MPbP]
[5]; SI = COX-1 IC50/COX-2 IC50, human assay kit
  SI (Selectivity Index): 18
[5]; human COX-1/COX-2 assay kit
  IC50: 0.14 µM
[2]; from experimental IC50 values
  experimental ddG between MPbP and F-IV for COX-2: 0.22 kcal/mol
[6]
  IC50: 2.53 µM

## CCCc1ccc(O)c(-c2ccc(OCCF)c(OC)c2)c1 [F-III, 4′-(2-fluoroethoxy)-3′-methoxy-5-propyl-2-hydroxy-1,1′-biphenyl]
[4]
  reduction of TBARS levels in brain: 116%

## CCCc1ccc(O)c(-c2ccc(O[11CH3])cc2)c1 [[^11C]MPbP, 4′-[^11C]methoxy-5-propyl-1,1′-biphenyl-2-ol, reference compound]
[7]
  uptake in LPS rats vs healthy rats: up to 400%
[8]; [15]
  fraction unbound at 15 min, 9.1 MBq/mL: 0.02
[8]; [16]
  fraction unbound at 15 min, 9.1 MBq/mL: 0.0188 ± 0.0013
[9]; [17]
  fraction unbound at 15 min, 9.1 MBq/mL: 0.08
[9]; [18]
  fraction unbound at 15 min, 9.1 MBq/mL: 0.0802 ± 0.0037

## CCCc1ccc(O)c(-c2ccc(OCC[18F])cc2)c1 [[^18F]F-IV, 4′-(2-[^18F]fluoroethoxy)-2-hydroxy-5-propyl-1,1′-biphenyl]
[8]; [15]
  fraction unbound at 15 min, 9.1 MBq/mL: < 0.01
[8]; [16]
  fraction unbound at 15 min, 9.1 MBq/mL: 0.0019 ± 0.0005
[10]
  radiochemical stability in human plasma: 92%
[11]; [19]
  increase in radioactivity in LPS animals vs controls, kidney: 16%
  increase in radioactivity in LPS animals vs controls, liver: 23%
  increase in radioactivity in LPS animals vs controls, lung: 12%
  increase in radioactivity in LPS animals vs controls, spleen: 20%
  increase in radioactivity in LPS animals vs controls, thymus: 20%
  increase in uptake in LPS-treated vs saline-injected rats, medulla: 16%
  increase in uptake in LPS-treated vs saline-injected rats, pons: 5%
[11]; LPS rats, celecoxib 10 mg/kg i.v. 30 min before radioligand, brain (pons and medulla), heart, lung, kidney
  reduction in radioactivity by celecoxib blocking: 20–32%
[11]; [20]
  brain uptake peak value, medulla: 2.09 ± 0.65 %ID/g
  brain uptake peak value, pons: 2.21 ± 0.64 %ID/g
[11]; intact rats, 120 min after injection
  radioactivity in the blood pool: 0.99 ± 0.17 %ID/g
[11]; intact rats, initial (10 min) level
  radioactivity in the blood pool, initial level: 1.35 ± 0.06 %ID/g
[12]
  logD: 3.3 ± 0.1
[9]; [17]
  fraction unbound at 15 min, 9.1 MBq/mL: < 0.02
[9]; [18]
  fraction unbound at 15 min, 9.1 MBq/mL: 0.0201 ± 0.0026

## C=CCc1ccc(O)c(-c2ccc(OC)c(CC=C)c2)c1 [MH, 4′-O-methylhonokiol]
[13]
  IC50: 0.06 µM
[14]
  IC50: 2.4 µM
